Measurements from patent publication US20160017206A1, “METHODS FOR IMMEDIATE SOURING CONTROL IN GASES OR FLUIDS PRODUCED FROM SULFIDOGENIC RESERVOIR SYSTEMS” (THE REGENTS OF THE UNIVERSITY OF CALIFORNIA, priority 2013, published 2016).

What was measured:
Assay type in all cases: cell-based
A. suillum = assay: Fe(II) oxidation by A. suillum in anoxic culture with nitrate as electron acceptor; settings: 10 mM Fe(II) as FeCl2, 10 mM acetate as cosubstrate, within 7 days
Protocol: A. suillum readily oxidized (10 mM) Fe(II) in the form of FeCl2 with nitrate as the electron acceptor under strict anaerobic conditions (FIG. 8). With 10 mM acetate as a cosubstrate, more than 70% of the added iron was oxidized within 7 days. No Fe(II) was oxidized in the absence of cells or if the nitrate was omitted (data not shown). Fe(II) oxidation was initiated after complete mineralization of acetate to CO2, and growth was not associated with this metabolism.
When acetate was added as an additional carbon and energy source, cell density increased concomitant with acetate oxidation. Fe(II) oxidation occurred after acetate had been depleted and the culture had reached stationary phase (FIG. 8).

Desulfovibrio vulgaris = assay: Inhibition of sulfidogenesis (sulfate reduction to sulfide) by D. vulgaris cultures
Protocol: Twelve tubes of basal anaerobic medium containing 15 mM lactate and 15 mM sulfate were inoculated with an active culture of D. vulgaris and incubated for 6 hours at 30° C., until a visible increase in optical density was observed. After six hours, the tubes were further inoculated with A. suillum and 15 mM chlorate prior to incubation overnight at 30° C., as outlined in Table 2.

[1] = system: marine sediment slurry microcosms; assay: Sulfide inhibition in marine sediment slurry microcosms; settings: chlorate added with Dechloromarinus strain NSS, incubation over 250 hours
Text: In the absence of chlorate and Dechloromarinus strain NSS sulfide is readily produced.

## [Cl][Fe][Cl] [FeCl2, Ferrous chloride]
A. suillum
  added iron oxidized: more than 70%

## [O-][Cl+2]([O-])O [chlorate]
Desulfovibrio vulgaris; 15 mM chlorate alone, 24 hours, lactate as electron donor
  sulfide production by D. vulgaris relative to control cells incubated without chlorate: 49%
Desulfovibrio vulgaris; 15 mM chlorate together with A. suillum, 24-hour incubation
  sulfide production by D. vulgaris relative to control cells incubated in the absence of A. suillum and chlorate: 17%
Desulfovibrio vulgaris; relatively low concentrations (15 mM)
  antimicrobial activity against D. vulgaris: has antimicrobial activity against D. vulgaris
Desulfovibrio vulgaris; treated with A. suillum (PS) and chlorate at 48 hours, relative to untreated control
  time course of sulfidogenesis by D. vulgaris (FIG. 14): immediate inhibition of sulfide production and removal of sulfide from the medium
[1]
  sulfide production in marine sediment slurry microcosms (FIG. 12): sulfide inhibition
